Results reported in US20120029187A1, “HALOALKYLSULFONANILIDE DERIVATIVE” (Nissan Chemical Industries, Ltd., priority 2009, published 2012).

Key:
Type in all cases: in vivo
ducksalad [1] = assay: Test Example 2: herbicidal effects during the vegetation period under submerged conditions; details: treatment during the vegetation period under submerged conditions; dose 2.52 g/a
How it was run: (§1)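 Barnyardgrass, bulrush and ducksalad were co-sown in alluvial soil flooded to 4 cm and grown in a greenhouse at 25 to 30° C. At the 1- or 2-leaf stage, water-diluted emulsifiable concentrates went onto the water surface at set doses (g/a). Herbicidal effect was scored three weeks later on a graded scale.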

bulrush [2] = assay: as above; details: treatment during the vegetation period under submerged conditions; dose 2.52 g/a
How it was run: as §1

barnyardgrass [3] = assay: as above; details: treatment during the vegetation period under submerged conditions; dose 2.52 g/a
How it was run: as §1

beadstraw = assay: Test Example 4: herbicidal effect in foliage treatment; details: dose 6.3 g/a, three weeks after application
How it was run: (§2)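 Doses are given in grams per are of applied compound, sprayed as water-diluted emulsifiable concentrate onto foliage of 14-day-old plants grown at 25 to 30° C. Herbicidal activity was assessed visually on a rating scale after three weeks.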

large crabgrass [4] = assay: as above; details: dose 6.3 g/a, three weeks after application
How it was run: as §2

common ragweed [5] = assay: as above; details: dose 6.3 g/a, three weeks after application
How it was run: as §2

water foxtail [6] = assay: as above; details: dose 6.3 g/a, three weeks after application
How it was run: as §2

wild oat [7] = assay: as above; details: dose 6.3 g/a, three weeks after application
How it was run: as §2

giant foxtail [8] = assay: as above; details: dose 6.3 g/a, three weeks after application
How it was run: as §2

barnyardgrass [9] = assay: as above; details: dose 6.3 g/a, three weeks after application
How it was run: as §2

redroot pigweed [10] = assay: as above; details: dose 6.3 g/a, three weeks after application
How it was run: as §2

common chickweed [11] = assay: as above; details: dose 6.3 g/a, three weeks after application
How it was run: as §2

common lambsquater [12] = assay: as above; details: dose 6.3 g/a, three weeks after application
How it was run: as §2

Italian ryegrass [13] = assay: as above; details: dose 6.3 g/a, three weeks after application
How it was run: as §2

large crabgrass [14] = assay: Test Example 3: herbicidal effects in soil treatment; details: dose 6.3 g/a
How it was run: (§3)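 Seeds were sown in sterilized diluvial soil and covered with about 1.5 cm of soil. Compounds, formulated as emulsifiable concentrates and diluted with water, were sprayed evenly over the soil surface at set doses in g/a. Herbicidal effect was scored on a rating scale three weeks later.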

common ragweed [15] = assay: as above; details: dose 6.3 g/a
How it was run: as §3

water foxtail [16] = assay: as above; details: dose 6.3 g/a
How it was run: as §3

wild oat [17] = assay: as above; details: dose 6.3 g/a
How it was run: as §3

giant foxtail [18] = assay: as above; details: dose 6.3 g/a
How it was run: as §3

barnyardgrass [19] = assay: as above; details: dose 6.3 g/a
How it was run: as §3

redroot pigweed [20] = assay: as above; details: dose 6.3 g/a
How it was run: as §3

common chickweed [21] = assay: as above; details: dose 6.3 g/a
How it was run: as §3

common lambsquater [22] = assay: as above; details: dose 6.3 g/a
How it was run: as §3

Italian ryegrass [23] = assay: as above; details: dose 6.3 g/a
How it was run: as §3

ducksalad [24] = assay: Test Example 1: herbicidal effects in preemergence treatment under submerged conditions; details: dose 2.52 g/a
How it was run: (§4)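 Alluvial soil was flooded to 4 cm, sown with barnyardgrass, bulrush and ducksalad, and planted with 2.5-leaf rice seedlings. On the seeding day, water-diluted emulsifiable concentrates were applied to the water surface at set doses (g/a). After three weeks in a 25 to 30° C. greenhouse, mortality was scored 0–5.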

bulrush [25] = assay: as above; details: dose 2.52 g/a
How it was run: as §4

barnyardgrass [26] = assay: as above; details: dose 2.52 g/a
How it was run: as §4

transplanted rice = assay: Test Example 1: preemergence treatment under submerged conditions, effect on crop; details: dose 2.52 g/a
How it was run: as §4

Structure (SMILES) | C: ducksalad, herbicidal effect (evaluation scale 0-5) (ducksalad [1]) | B: bulrush, herbicidal effect (evaluation scale 0-5) (bulrush [2]) | A: barnyardgrass, herbicidal effect (evaluation scale 0-5) (barnyardgrass [3]) | O: beadstraw, herbicidal effect (beadstraw) | D: large crabgrass, herbicidal effect (large crabgrass [4]) | J: common ragweed, herbicidal effect (common ragweed [5]) | G: water foxtail, herbicidal effect (water foxtail [6]) | F: wild oat, herbicidal effect (wild oat [7]) | E: giant foxtail, herbicidal effect (giant foxtail [8]) | A: barnyardgrass, herbicidal effect (barnyardgrass [9]) | K: redroot pigweed, herbicidal effect (redroot pigweed [10]) | N: common chickweed, herbicidal effect (common chickweed [11]) | L: common lambsquater, herbicidal effect (common lambsquater [12]) | H: Italian ryegrass, herbicidal effect (Italian ryegrass [13]) | D: large crabgrass, herbicidal effect (evaluation scale 0-5) (large crabgrass [14]) | J: common ragweed, herbicidal effect (evaluation scale 0-5) (common ragweed [15]) | G: water foxtail, herbicidal effect (evaluation scale 0-5) (water foxtail [16]) | F: wild oat, herbicidal effect (evaluation scale 0-5) (wild oat [17]) | E: giant foxtail, herbicidal effect (evaluation scale 0-5) (giant foxtail [18]) | A: barnyardgrass, herbicidal effect (evaluation scale 0-5) (barnyardgrass [19]) | other results
CC1CC(=O)N(Cc2ccccc2NS(=O)(=O)C(F)(F)F)CO1 (stereo not shown) [II-4] | 5 (mortality of 90% or above (nearly complete death)) | 5 (mortality of 90% or above (nearly complete death)) | 5 (mortality of 90% or above (nearly complete death)) | 4 (mortality of at least 70% and less than 90%) | 5 (mortality of 90% or above (nearly complete death)) | 5 (mortality of 90% or above (nearly complete death)) | 5 (mortality of 90% or above (nearly complete death)) | 0 (mortality of less than 5% (almost ineffective)) | 5 (mortality of 90% or above (nearly complete death)) | 5 (mortality of 90% or above (nearly complete death)) | 0 (mortality of less than 5% (almost ineffective)) | 3 (mortality of at least 40% and less than 70%) | 3 (mortality of at least 40% and less than 70%) | 3 (mortality of at least 40% and less than 70%) | 5 (mortality of 90% or above (nearly complete death)) | 4 (mortality of at least 70% and less than 90%) | 5 (mortality of 90% or above (nearly complete death)) | 0 (mortality of less than 5% (almost ineffective)) | 5 (mortality of 90% or above (nearly complete death)) | 5 (mortality of 90% or above (nearly complete death)) | K: redroot pigweed, herbicidal effect (evaluation scale 0-5) (redroot pigweed [20]): 0 (mortality of less than 5% (almost ineffective)); N: common chickweed, herbicidal effect (evaluation scale 0-5) (common chickweed [21]): 5 (mortality of 90% or above (nearly complete death)); L: common lambsquater, herbicidal effect (evaluation scale 0-5) (common lambsquater [22]): 4 (mortality of at least 70% and less than 90%); H: Italian ryegrass, herbicidal effect (evaluation scale 0-5) (Italian ryegrass [23]): 3 (mortality of at least 40% and less than 70%); C: ducksalad, herbicidal effect (evaluation scale 0-5) (ducksalad [24]): 5 (mortality of 90% or above (nearly complete death)); B: bulrush, herbicidal effect (evaluation scale 0-5) (bulrush [25]): 5 (mortality of 90% or above (nearly complete death)); A: barnyardgrass, herbicidal effect (evaluation scale 0-5) (barnyardgrass [26]): 5 (mortality of 90% or above (nearly complete death)); a: transplanted rice, effect on crop (evaluation scale 0-5) (transplanted rice): 0 (mortality of less than 5% (almost ineffective))
CC1(C)CC(=O)N(Cc2ccccc2N(C(=O)c2ccccc2)S(=O)(=O)C(F)(F)F)CO1 [II-21] | 5 (mortality of 90% or above (nearly complete death)) | 5 (mortality of 90% or above (nearly complete death)) | 5 (mortality of 90% or above (nearly complete death)) | 4 (mortality of at least 70% and less than 90%) | 4 (mortality of at least 70% and less than 90%) | 5 (mortality of 90% or above (nearly complete death)) | 5 (mortality of 90% or above (nearly complete death)) | 0 (mortality of less than 5% (almost ineffective)) | 4 (mortality of at least 70% and less than 90%) | 5 (mortality of 90% or above (nearly complete death)) | 2 (mortality of at least 20% and less than 40%) | 4 (mortality of at least 70% and less than 90%) | 4 (mortality of at least 70% and less than 90%) | 4 (mortality of at least 70% and less than 90%) | 5 (mortality of 90% or above (nearly complete death)) | 5 (mortality of 90% or above (nearly complete death)) | 5 (mortality of 90% or above (nearly complete death)) | 0 (mortality of less than 5% (almost ineffective)) | 3 (mortality of at least 40% and less than 70%) | 5 (mortality of 90% or above (nearly complete death)) | N: common chickweed, herbicidal effect (evaluation scale 0-5) (common chickweed [21]): 4 (mortality of at least 70% and less than 90%); L: common lambsquater, herbicidal effect (evaluation scale 0-5) (common lambsquater [22]): 0 (mortality of less than 5% (almost ineffective)); H: Italian ryegrass, herbicidal effect (evaluation scale 0-5) (Italian ryegrass [23]): 5 (mortality of 90% or above (nearly complete death)); C: ducksalad, herbicidal effect (evaluation scale 0-5) (ducksalad [24]): 5 (mortality of 90% or above (nearly complete death)); B: bulrush, herbicidal effect (evaluation scale 0-5) (bulrush [25]): 5 (mortality of 90% or above (nearly complete death)); A: barnyardgrass, herbicidal effect (evaluation scale 0-5) (barnyardgrass [26]): 5 (mortality of 90% or above (nearly complete death)); a: transplanted rice, effect on crop (evaluation scale 0-5) (transplanted rice): 0 (mortality of less than 5% (almost ineffective))
